Reference: patent publication US9174984B2, “Chemical compounds” (GlaxoSmithKline Intellectual Property (No. 2) Limited, priority 2011, dated 2015)
Where “and” joins values, the source holds several entries; their conditions need not be identical. Equal values may be shown once. Read-outs that look alike come from different tables or passages of the source.

Legend:
Human full-length DNMT1 = target: T1, Human full-length DNMT1 (Homo sapiens, UniProt P26358); test: DNMT inhibition assay (3H-SAM filter-binding) against DNMT1; format: biochemical
T1 construct: Human full-length DNMT1 enzyme purchased from BPS Biosciences; purchased BPS Biosciences

Human DNMT3b/3L = target: T2, Human DNMT3b/3L (Homo sapiens, UniProt Q9UBC3); test: DNMT inhibition assay (3H-SAM filter-binding) against DNMT3b/3L; format: biochemical; settings: read-out: IC50 against DNMT 3b/3L
T2 construct: truncated 3b (catalytic domain)
Procedure: DNMT Assays Used for Examples 1-114
Human DNMT3b/3L was coexpressed using truncated 3b (catalytic domain) and 3L (DNA binding domain) at GSK. Human full-length DNMT1 enzyme purchased from BPS Biosciences. Poly(dIdC) DNA (Sigma) was used at 0.002 mg/mL. Tritiated SAM (Perkin Elmer) was used at 500 nM. DNA, DNMT enzyme, and inhibitors were mixed with assay buffer (20 mM Tris pH8, 5% glycerol, 1 mM EDTA, 100 μg/mL BSA, 1 mM DTT, 50 mM NaCl) and pre-incubated without SAM for 30 min. H3 SAM was then added to initiate the methylation reaction which continues at 37° C. for 1 h. Reaction mixture was then transferred to a filter plate (Millipore Multiscreen HTS DE), then washed with 50 mM H2PO4 and 95% Ethanol. Scintillation counts were measured on the Perkin Elmer Microbeta scintillation counter.
DNMT Assays Used for Examples 115-120
DNMT enzymes were produced by GlaxoSmithKline. Human DNMT3b/3L was coexpressed using truncated 3b (catalytic domain) and 3L (DNA binding domain). DNMT1 was human, full-length protein. 3H-SAM was purchased from Perkin Elmer. Custon DNA oligonucleotide substrates were purchased from Integrated DNA technologies.
28-mer DNA Oligonucleotide Duplex (for DNMT3b/3L)
DNMT enzyme was preincubated with compound for 1 hr at RT, after which SAM and DNA were added to initiate the methylation reaction. The methylation reaction was quenched after 20 min upon the addition of >100 fold excess non-radioactive SAM. The quenched reaction mixture (80%) was transferred to a DEAE filter binding plate (Millipore Multiscreen HTS DE), washed with 3 volumes of 50 mM phosphate buffer and dried. Scintillation cocktail (MicroScint-20) was added to the plate and radioactivity (3H-DNA) was measured using a Perkin Elmer TopCount scintillation counter.
Final reagent concentrations (prior to quench) consisted of the following:
DNMT3b/3L (10 nM), 200 nM DNA, 200 nM 3H-SAM in 20 mM Tris (pH 8), 1 mM DTT, 1 mM EDTA, 25 mM NaCl, 1 mM CHAPS and 2% DMSO.

[1] = at least one experimental run or average of several runs, Examples 1-114 and 115-120 use different protocols

T1 sequence (P26358 whole entry): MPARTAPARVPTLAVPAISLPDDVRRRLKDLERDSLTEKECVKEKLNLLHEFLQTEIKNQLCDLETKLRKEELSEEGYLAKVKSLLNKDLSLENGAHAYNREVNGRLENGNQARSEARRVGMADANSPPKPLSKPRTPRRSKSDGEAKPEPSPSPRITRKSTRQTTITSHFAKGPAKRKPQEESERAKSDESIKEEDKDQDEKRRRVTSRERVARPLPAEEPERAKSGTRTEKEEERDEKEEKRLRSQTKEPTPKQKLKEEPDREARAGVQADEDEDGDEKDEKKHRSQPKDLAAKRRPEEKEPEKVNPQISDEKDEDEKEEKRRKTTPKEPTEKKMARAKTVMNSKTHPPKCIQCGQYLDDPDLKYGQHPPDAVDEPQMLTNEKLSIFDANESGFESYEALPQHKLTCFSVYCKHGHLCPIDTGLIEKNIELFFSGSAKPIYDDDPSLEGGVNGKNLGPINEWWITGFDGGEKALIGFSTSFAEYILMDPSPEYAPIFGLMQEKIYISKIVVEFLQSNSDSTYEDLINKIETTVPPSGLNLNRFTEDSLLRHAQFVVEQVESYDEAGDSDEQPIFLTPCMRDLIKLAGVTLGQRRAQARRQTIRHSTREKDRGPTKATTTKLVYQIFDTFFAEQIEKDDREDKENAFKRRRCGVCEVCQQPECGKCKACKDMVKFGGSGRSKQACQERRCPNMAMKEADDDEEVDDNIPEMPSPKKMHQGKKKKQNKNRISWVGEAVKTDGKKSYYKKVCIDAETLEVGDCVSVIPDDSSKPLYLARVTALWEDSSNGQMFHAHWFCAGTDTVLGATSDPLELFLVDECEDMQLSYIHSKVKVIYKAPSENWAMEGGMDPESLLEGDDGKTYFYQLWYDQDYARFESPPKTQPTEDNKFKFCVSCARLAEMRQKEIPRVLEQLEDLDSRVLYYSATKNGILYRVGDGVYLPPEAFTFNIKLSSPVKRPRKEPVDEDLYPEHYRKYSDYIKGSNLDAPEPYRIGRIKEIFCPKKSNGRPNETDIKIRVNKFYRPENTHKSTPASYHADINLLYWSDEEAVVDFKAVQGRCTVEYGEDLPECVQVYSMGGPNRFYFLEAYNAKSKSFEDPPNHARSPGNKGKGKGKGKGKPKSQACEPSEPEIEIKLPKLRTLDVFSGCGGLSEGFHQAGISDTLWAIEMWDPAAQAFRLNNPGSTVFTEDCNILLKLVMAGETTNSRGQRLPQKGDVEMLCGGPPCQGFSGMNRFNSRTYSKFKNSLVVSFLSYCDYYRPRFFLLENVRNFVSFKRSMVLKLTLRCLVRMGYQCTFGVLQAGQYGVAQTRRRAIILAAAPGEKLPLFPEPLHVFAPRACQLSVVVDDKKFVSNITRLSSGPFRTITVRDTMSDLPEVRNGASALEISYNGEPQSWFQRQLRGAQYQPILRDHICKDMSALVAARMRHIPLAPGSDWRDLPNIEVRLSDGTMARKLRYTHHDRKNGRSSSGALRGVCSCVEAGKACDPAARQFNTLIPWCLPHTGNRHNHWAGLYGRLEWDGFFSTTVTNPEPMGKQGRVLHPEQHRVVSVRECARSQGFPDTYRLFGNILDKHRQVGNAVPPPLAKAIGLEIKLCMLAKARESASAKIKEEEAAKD

IC50 (Human full-length DNMT1; [1]) | IC50 (Human DNMT3b/3L; [1]) | Structure (SMILES) | IC50 (Human full-length DNMT1; read-out: IC50 against DNMT 1) | IC50 (Human DNMT3b/3L)
 |  | COCC#CC(=O)Nc1cccc(CNC(=S)NCc2ccnc3[nH]ccc23)c1 [Example 41, N-(3-((3-((1H-pyrrolo[2,3-b]pyridin-4-yl)methyl)thioureido)methyl)phenyl)-4-methoxybut-2-ynamide] | 19.1 to 300 µM and ≤ 200 µM | ≤ 1 µM
19.1 to 300 µM | ≤ 20 µM | CC#CC(=O)Nc1ccccc1CNS(=O)(=O)NCc1ccnc2[nH]ccc12 [Example 42, N-(2-(((N-((1H-pyrrolo[2,3-b]pyridin-4-yl)methyl)sulfamoyl)amino)methyl)phenyl)but-2-ynamide] |  | 
19.1 to 300 µM and ≤ 100 µM | ≤ 1 µM | O=C(C#Cc1ccc([N+](=O)[O-])cc1)NCCNC(=S)NCc1ccnc2[nH]ccc12 [Example 87, N-(2-(3-((1H-pyrrolo[2,3-b]pyridin-4-yl)methyl)thioureido)ethyl)-3-(4-nitrophenyl)propiolamide] |  | 
≤ 100 µM | ≤ 10 µM | S=C(NCc1ccccc1C1CCCNC1)NCc1ccnc2[nH]ccc12 (centres unmarked) [Example 116, 1-((1H-pyrrolo[2,3-b]pyridin-4-yl)methyl)-3-(2-(piperidin-3-yl)benzyl)thiourea] |  | 
